Results on 14 compounds are retold here after PubChem BioAssay (NCI).

What all share (test): DTP human tumour cell line panel, 48 h
Assay [1] relates to U251 CNS.
Assay [2] deals with HCC-2998 colon.
Assay [3] deals with SNB-75 CNS.
Assay [4] deals with SF-295 CNS.
For assay [5], the system named is EKVX NSCLC.
Assay [6] deals with SK-MEL-28 melanoma.
Assay [7] has as its system UACC-62 melanoma.
The test system of assay [8] is UACC-257 melanoma.
The test system of assay [9] is SK-MEL-2 melanoma.
The test system of assay [10] is CAKI-1 renal.

Where “and” joins values, the source holds several entries; their conditions need not be identical. Equal values may be shown once.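 Method: 48-hour compound exposure of cells in 96-well plates, five concentrations, linear interpolation of endpoints. The concentration for 50% growth inhibition is given as GI50. TGI denotes the concentration required for complete inhibition of growth.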

By GI50 is commonly meant the concentration giving 50% growth inhibition. For orientation: TGI means the concentration at which net growth stops.

With `CC/C(=C/c1ccc(OC)cc1OC)[N+](=O)[O-]`, the GI50 was 4.93 µM in assay [1]; 4.32 µM in assay [2]; 3.28 µM in assay [3]; 9.88 µM in assay [4]; 15.4 µM in assay [5]; 2.51 µM in assay [6]. Also, the GI50 is 1.73 µM in assay [7], 2.31 µM in [8], 2.64 µM in [9] and 2.24 µM in assay [10]. In addition, the TGI is 16.2 µM in [1]; 15.8 µM in [2]; 16.6 µM in assay [3]; 21.7 µM in assay [4]; 28.9 µM in assay [5]; 6.51 µM in [6]. Besides, the TGI in assay [7] stood at 3.96 µM; in [8], 6.29 µM; in [9], 8.73 µM; in assay [10], 6.55 µM.

Consider `CC1c2[nH]c3ccccc3c2CCN1O` (centres undefined), for which the TGI in assay [1], in assay [2], in assay [3], in assay [4], in assay [5] and in [6] was over 100 µM each time. Moreover, the TGI in assay [7], in assay [8], in assay [9] and in assay [10] was over 100 µM each time.

`O=c1[nH]c(=O)n(C2CC(O)C(CO)O2)cc1C(F)(F)F` (centres undefined): the GI50 in assay [1] was 4.42 µM; in assay [2], 11.3 µM; in assay [3], over 40.9 µM; in assay [4], 2.79 µM; in assay [5] it was over 54.1 µM; in [6], over 62.1 µM. Moreover, the GI50 in assay [7] was 2.59 µM; in assay [8] it was 8.61 µM; in [9], over 100 µM; in assay [10], 1.79 µM. The TGI in assay [1], in assay [2], in assay [3], in assay [4], in assay [5] and in assay [6] was over 100 µM in each case. In addition, the TGI was over 91.8 µM in [7], over 100 µM in assay [8], over 100 µM in assay [9] and over 100 µM in assay [10].

Turning to `N#CC1=C(N)NC(=O)NC12Nc1ccccc1N2`, the GI50 is over 100 µM in assay [1]; over 100 µM in [2]; 45.2 µM in assay [3]; over 100 µM in assay [4]; over 100 µM in [5]; over 100 µM in assay [6]. Also, the GI50 in [7], in assay [8], in [9] and in [10] was over 100 µM throughout. Further, the TGI in assay [1], in assay [2], in [3], in [4], in [5] and in assay [6] was over 100 µM each time. The TGI in [7], in assay [8], in assay [9] and in assay [10] was over 100 µM each time.

Regarding `CC(C)(C)OC(=O)Nc1ccc2c(c1)C(NC(=O)Nc1cccc(C#N)c1)CC(C)(C)O2` (centres undefined), the GI50 was 1.76 µM in [1]; 4.93 µM in assay [2]; 7.01 µM in assay [3]; 1.94 µM in assay [4]; 0.691 µM in [5]; 5.34 µM in assay [6]. In addition, the GI50 in assay [7] was 0.834 µM; in [8], 1.07 µM; in assay [9], 6.4 µM; in assay [10], 2.49 µM. Besides, the TGI in assay [1] was over 58.2 µM; in [2], over 100 µM; in assay [3], over 100 µM; in [4] it was over 37.1 µM; in assay [5], over 69.6 µM; in assay [6] it was 71.4 µM. The TGI in [7] was 17 µM; in assay [8] it was 6.93 µM; in assay [9] it was 31.4 µM; in assay [10], over 42.6 µM.

Consider `CC1=NOC(=O)/C1=C/c1ccc2c(c1)OCO2`, for which the TGI in [1] was 38 µM; in assay [2] it was 95.5 µM; in assay [3] it was 57.5 µM; in assay [4], 69.6 µM; in [5], over 100 µM; in [6], over 100 µM. Also, the TGI in [7] was 43.5 µM; in assay [8], over 100 µM; in [9], 39 µM; in assay [10] it was 36.4 µM.

`CCC1=C(CC2NCCc3ccccc32)CC2c3cc(OC)c(OC)cc3CCN2C1` (centres undefined): the GI50 was 4.8 µM in assay [1]; 3.9 µM in assay [2]; 4.09 µM in assay [3]; 3.73 µM in [4]; 4.81 µM in assay [5]; 4.35 µM in assay [6]. Besides, the GI50 in assay [7] was 13.9 µM; in [8], 10 µM; in assay [9], 4.64 µM; in [10], 3.28 µM. The TGI was 16.4 µM and 2.77 µM in assay [1]; 15.5 µM and 10.5 µM in assay [2]; 13.8 µM and 2.47 µM in assay [3]; 15 µM and 6.82 µM in assay [4]; 14.4 µM and 9.26 µM in [6]; 27.5 µM and 6.66 µM in assay [7]. The TGI in [8] was 24.5 µM and 9.49 µM; in assay [9], 16.6 µM and 2.64 µM; in assay [10], 15.2 µM.

On to `C[C@H]1C=C2C(=O)O[C@H]3CC[C@@H](C1)[C@@]23O`, for which the TGI stood at 19.5 µM in assay [1]; 26.8 µM in assay [2]; 19.5 µM in [3]; 16.4 µM in [4]; 8.36 µM in [5]; 16.1 µM in assay [6]. Further, the TGI in [7] came out at 13.2 µM; in assay [8] it was 22.9 µM; in [9], 10.1 µM; in assay [10] it was 14.8 µM.

As for `COc1cc(C(=O)c2cocc2C(=O)c2ccc3c(c2)OCO3)cc(OC)c1OC`, the TGI in assay [1] is 8.35 µM; in assay [2], 16.9 µM; in assay [3], 10.4 µM; in assay [4], 2.48 µM; in [5], over 58.3 µM; in [6], over 49.5 µM. For the same compound, the TGI in assay [7] was over 47.3 µM; in assay [8], over 45.7 µM; in [9] it was over 41.7 µM; in [10], 35.7 µM.

Take `CC(=O)Oc1ccc2c(c1)C(=O)c1nc(C)c(C)nc1C2=O`: the TGI was over 100 µM in [1]; over 100 µM in assay [2]; over 100 µM in assay [3]; over 100 µM in assay [4]; over 78.6 µM in assay [5]; over 100 µM in assay [6]. Further, the TGI was 38.8 µM in assay [7], over 66.4 µM in assay [8], over 86.3 µM in [9] and over 100 µM in assay [10].

For the compound `CC(=O)NN1C(=O)C(Cc2ccccc2)c2ccccc21` (centres undefined), the TGI in [1], in assay [2], in assay [3], in [4], in assay [5] and in [6] was over 100 µM each time. For the same compound, the TGI in [7], in assay [8], in assay [9] and in assay [10] was over 100 µM throughout.

In the case of `CO/N=C(\COc1ccc2oc(-c3ccccc3)cc(=O)c2c1)c1ccc(F)cc1`, the GI50 in assay [1] was 18 µM; in assay [2], 23.6 µM; in assay [3], 17.4 µM; in assay [4] it was over 100 µM; in assay [5], 35.9 µM; in [6] it was 48.2 µM. Besides, the GI50 in [7] is 21.9 µM; in assay [8] it was 20.8 µM; in assay [9], 24.4 µM; in assay [10] it was over 100 µM. Besides, the TGI in [1] was 35.1 µM; in assay [2] it was 54.4 µM; in assay [3], 40.6 µM; in [4], over 100 µM; in [5] it was over 100 µM; in [6], over 100 µM. The TGI was 86.5 µM in [7], 46.7 µM in assay [8], 73.3 µM in assay [9] and over 100 µM in assay [10].

Turning to `CCn1c(-c2nonc2N)nc2c(N3CCCC3)nccc21`, the GI50 is 9.43 µM in assay [1]; over 25 µM in assay [2]; 10.3 µM in assay [3]; 9.27 µM in [4]; over 25 µM in [5]; over 25 µM in assay [6]. For the same compound, the GI50 in assay [7] is 16.2 µM; in assay [8], over 22.4 µM; in assay [9] it was over 25 µM; in assay [10] it was 13.4 µM. For the same compound, the TGI in [1], in assay [2], in [3], in [4], in assay [5] and in assay [6] was over 25 µM in each case. In addition, the TGI in [7], in assay [8], in [9] and in [10] was over 25 µM each time.

As to `CC[PH+](CC)CC.[Cl][Au]`, the GI50 in assay [1] is 1.95 µM; in assay [2], 6.78 µM; in assay [3], 2.3 µM; in [4] it was 4.32 µM; in assay [5], 1.42 µM; in assay [6], 0.78 µM. The GI50 in [7] was 1.16 µM; in assay [8], 1.09 µM; in assay [9], 1.38 µM; in assay [10] it was 1.18 µM. The TGI in [1] turned out to be 5.14 µM; in assay [2], 12 µM; in assay [3] it was 6.99 µM; in [4] it was 8.88 µM; in assay [5], 2.91 µM; in assay [6], 2.35 µM. Moreover, the TGI in assay [7] was 2.63 µM; in assay [8], 2.36 µM; in [9], 2.95 µM; in assay [10], 2.64 µM.
